Data from patent publication US20260207585A1, “METHODS AND COMPOSITIONS FOR THE TREATMENT OF PARKINSON'S DISEASE, HUNTINGTON'S DISEASE, AMYOTROPHIC LATERAL SCLEROSIS, AND LEARNING DISORDERS” (Cedars-Sinai Medical Center, priority 2022, published 2026).
Read-outs that look alike come from different tables or passages of the source.

Experiments:
Assay type in all cases: biochemical
[1] = biological target: T1, GLP (Homo sapiens, UniProt Q9H9B1); experiment: Methyltransferase inhibition panel: GLP
T1 sequence (Q9H9B1 1-1298): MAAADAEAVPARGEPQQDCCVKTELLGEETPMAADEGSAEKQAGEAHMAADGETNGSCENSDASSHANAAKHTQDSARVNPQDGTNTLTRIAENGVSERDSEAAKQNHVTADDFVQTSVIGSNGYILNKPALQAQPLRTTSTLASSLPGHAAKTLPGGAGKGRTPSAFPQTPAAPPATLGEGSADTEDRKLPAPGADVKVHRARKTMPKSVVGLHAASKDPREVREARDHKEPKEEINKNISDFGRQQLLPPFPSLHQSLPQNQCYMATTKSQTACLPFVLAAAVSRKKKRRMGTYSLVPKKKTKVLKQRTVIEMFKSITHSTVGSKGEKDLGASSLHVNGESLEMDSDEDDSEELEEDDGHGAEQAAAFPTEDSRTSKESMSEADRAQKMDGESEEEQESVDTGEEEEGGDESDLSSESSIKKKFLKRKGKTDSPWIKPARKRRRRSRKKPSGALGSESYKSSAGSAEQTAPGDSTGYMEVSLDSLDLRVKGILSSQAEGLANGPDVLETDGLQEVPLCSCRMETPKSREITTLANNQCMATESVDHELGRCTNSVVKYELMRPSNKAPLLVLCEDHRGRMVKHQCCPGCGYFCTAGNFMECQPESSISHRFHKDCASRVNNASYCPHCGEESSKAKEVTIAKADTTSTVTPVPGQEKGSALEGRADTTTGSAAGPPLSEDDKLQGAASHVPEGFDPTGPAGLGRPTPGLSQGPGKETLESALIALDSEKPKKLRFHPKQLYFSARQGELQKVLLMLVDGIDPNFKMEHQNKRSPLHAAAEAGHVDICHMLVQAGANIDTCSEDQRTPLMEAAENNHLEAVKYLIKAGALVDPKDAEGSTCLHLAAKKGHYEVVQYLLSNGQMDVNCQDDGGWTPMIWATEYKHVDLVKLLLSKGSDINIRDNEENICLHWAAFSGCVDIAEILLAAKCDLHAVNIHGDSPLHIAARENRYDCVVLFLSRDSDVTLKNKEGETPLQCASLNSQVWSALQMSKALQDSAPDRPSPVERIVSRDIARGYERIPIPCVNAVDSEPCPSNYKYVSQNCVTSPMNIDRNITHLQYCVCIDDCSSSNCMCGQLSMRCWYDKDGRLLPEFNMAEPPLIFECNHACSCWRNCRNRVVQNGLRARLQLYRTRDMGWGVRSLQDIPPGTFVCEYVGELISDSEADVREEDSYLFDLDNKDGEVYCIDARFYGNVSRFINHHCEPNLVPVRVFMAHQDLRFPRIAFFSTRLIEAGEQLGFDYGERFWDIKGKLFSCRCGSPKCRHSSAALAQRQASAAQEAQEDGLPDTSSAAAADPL
Procedure: (§1) The ability of ETP69 to inhibit methyltransferases was tested.

[2] = biological target: ASH1L (Homo sapiens, UniProt Q9NR48); experiment: Methyltransferase inhibition panel: ASH1L
Procedure: as §1

[3] = biological target: T2, PRMT7 (Homo sapiens, UniProt Q9NVM4); experiment: Methyltransferase inhibition panel: PRMT7
T2 sequence (Q9NVM4 1-692): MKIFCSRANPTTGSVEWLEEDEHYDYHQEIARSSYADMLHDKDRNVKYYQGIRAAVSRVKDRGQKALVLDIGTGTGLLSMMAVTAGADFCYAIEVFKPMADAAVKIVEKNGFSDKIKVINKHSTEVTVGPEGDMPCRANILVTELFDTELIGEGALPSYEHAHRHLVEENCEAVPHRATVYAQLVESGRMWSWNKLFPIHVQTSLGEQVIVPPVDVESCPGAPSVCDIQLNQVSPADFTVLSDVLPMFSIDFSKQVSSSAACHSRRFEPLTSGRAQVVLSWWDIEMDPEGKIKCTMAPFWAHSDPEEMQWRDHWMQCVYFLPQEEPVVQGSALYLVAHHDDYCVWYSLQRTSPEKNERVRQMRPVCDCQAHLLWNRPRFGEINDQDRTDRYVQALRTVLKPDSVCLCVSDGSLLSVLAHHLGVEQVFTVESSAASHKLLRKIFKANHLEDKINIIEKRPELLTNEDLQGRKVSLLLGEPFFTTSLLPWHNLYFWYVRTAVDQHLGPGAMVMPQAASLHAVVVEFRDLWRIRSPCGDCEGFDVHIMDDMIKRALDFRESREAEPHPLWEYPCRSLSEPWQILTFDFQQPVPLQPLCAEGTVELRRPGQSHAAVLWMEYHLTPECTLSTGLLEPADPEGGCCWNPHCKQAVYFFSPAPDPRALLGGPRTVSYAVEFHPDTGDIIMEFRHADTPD
Procedure: as §1

[4] = biological target: PRMT1 (Homo sapiens, UniProt Q99873); experiment: Methyltransferase inhibition panel: PRMT1
Procedure: as §1

[5] = biological target: PRDM9 (Homo sapiens, UniProt Q9NQV7); experiment: Methyltransferase inhibition panel: PRDM9
Procedure: as §1

[6] = biological target: T3, SET7/9 (Homo sapiens, UniProt Q8WTS6); experiment: Methyltransferase inhibition panel: SET7/9
T3 sequence (Q8WTS6 1-366): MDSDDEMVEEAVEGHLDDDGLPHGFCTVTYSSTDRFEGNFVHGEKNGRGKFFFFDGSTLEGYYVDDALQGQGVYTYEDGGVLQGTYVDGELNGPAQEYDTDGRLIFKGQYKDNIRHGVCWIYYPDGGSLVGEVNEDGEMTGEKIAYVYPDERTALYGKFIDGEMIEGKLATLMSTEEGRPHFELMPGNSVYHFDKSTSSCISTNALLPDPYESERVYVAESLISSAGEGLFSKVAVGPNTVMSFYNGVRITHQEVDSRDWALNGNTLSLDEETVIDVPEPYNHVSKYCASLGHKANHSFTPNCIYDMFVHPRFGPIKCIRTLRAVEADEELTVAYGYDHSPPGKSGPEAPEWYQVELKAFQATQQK
Procedure: as §1

[7] = read-out: Enzyme % Activity (relative to DMSO controls) Data 1
[8] = read-out: Enzyme % Activity (relative to DMSO controls) Data 2
[9] = NT1721 20 μM, substrate Nucleosomes 0.05 mg/mL
[10] = NT1721 20 μM, substrate GST-GAR 5 μM

PRDM9, sequence (Q9NQV7 whole entry): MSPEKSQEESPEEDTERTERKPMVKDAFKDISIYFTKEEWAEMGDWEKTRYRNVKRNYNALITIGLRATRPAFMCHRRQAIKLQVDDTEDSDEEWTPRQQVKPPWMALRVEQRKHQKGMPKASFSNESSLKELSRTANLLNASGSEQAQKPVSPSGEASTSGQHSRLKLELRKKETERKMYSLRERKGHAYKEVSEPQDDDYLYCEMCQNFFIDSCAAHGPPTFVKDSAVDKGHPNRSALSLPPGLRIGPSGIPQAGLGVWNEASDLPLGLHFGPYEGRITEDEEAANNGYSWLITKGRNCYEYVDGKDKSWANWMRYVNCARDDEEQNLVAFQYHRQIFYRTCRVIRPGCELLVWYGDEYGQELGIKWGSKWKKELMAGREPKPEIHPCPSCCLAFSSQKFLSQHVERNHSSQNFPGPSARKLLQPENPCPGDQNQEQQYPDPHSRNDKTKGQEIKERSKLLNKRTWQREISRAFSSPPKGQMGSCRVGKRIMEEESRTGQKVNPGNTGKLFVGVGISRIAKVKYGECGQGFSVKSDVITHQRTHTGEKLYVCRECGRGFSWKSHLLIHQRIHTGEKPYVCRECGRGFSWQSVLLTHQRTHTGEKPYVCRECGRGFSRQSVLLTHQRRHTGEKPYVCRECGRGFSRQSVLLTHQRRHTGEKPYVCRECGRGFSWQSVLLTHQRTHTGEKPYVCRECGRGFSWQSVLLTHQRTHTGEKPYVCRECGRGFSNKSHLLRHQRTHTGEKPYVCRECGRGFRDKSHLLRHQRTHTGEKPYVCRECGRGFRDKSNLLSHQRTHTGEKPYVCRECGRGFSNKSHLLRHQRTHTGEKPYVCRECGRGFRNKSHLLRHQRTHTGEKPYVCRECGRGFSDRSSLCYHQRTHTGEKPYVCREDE
PRMT1, sequence (Q99873 whole entry): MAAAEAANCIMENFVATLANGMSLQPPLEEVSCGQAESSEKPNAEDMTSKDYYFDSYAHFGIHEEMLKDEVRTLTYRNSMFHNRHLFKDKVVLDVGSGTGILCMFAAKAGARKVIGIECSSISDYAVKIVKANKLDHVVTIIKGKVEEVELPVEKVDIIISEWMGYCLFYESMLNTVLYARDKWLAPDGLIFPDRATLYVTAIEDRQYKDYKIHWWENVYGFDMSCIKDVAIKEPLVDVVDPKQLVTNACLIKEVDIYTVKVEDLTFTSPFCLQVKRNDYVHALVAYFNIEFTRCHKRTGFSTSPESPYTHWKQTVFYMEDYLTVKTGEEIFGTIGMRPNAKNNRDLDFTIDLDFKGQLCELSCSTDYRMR

## CN1C(=O)[C@@]23C[C@](C)(C#N)[C@H](c4ccc5c(c4)OCO5)N2C(=O)[C@]1(C)SS3 (racemic) [ETP69, Rac-(3S,6S,7S,8aS)-6-(benzo[d][1,3]dioxol-5-yl)-2,3,7-trimethyl-1,4-dioxohexahydro-6H-3,8a-epidithiopyrrolo[1,2-a]pyrazine-7-carbonitrile]
[1]; [7]
  remaining activity at 2.5 µM: 91.4%
[1]; [8]
  remaining activity at 2.5 µM: 94.2%
[2]; [9]
  Enzyme % Activity (relative to DMSO controls) Data 1: 3.42%
  Enzyme % Activity (relative to DMSO controls) Data 2: 4.17%
[2]; summary of Table 1
  inhibition relative to DMSO controls: at least 7500
[3]; [10]
  Enzyme % Activity (relative to DMSO controls) Data 1: 66.70%
  Enzyme % Activity (relative to DMSO controls) Data 2: 66.73%
[3]; summary of Table 1
  inhibition relative to DMSO controls: at least 7500
[4]; [7]
  remaining activity at 20 µM: 114%
[4]; [8]
  remaining activity at 20 µM: 115%
[5]; [7]
  remaining activity at 20 µM: 46.2%
[5]; [8]
  remaining activity at 20 µM: 47.1%
[5]; summary of Table 1
  inhibition relative to DMSO controls: at least 7500
[6]; [7]
  remaining activity at 20 µM: 107%
[6]; [8]
  remaining activity at 20 µM: 107%
